The source of these data is patent US9655909B2, “Personalized medicine for the prediction of therapy targeting the hedgehog pathway” (Board of Regents, The University of Texas System, priority 2012, dated 2017).

Assay [1] deals with EAC cell lines and BE3 Gli1 stable clones. The experiment in a line: IC50 evaluation for cyclopamine and GDC-0449 (cell growth). The format is cell-based, human. To be noted: for resistance of BE3/Gli1 under TNFα treatment: TNFα 5 ng/mL; for efficacy in the EAC cell lines with rapamycin treatment: rapamycin 10 nM pre-treatment. The method, then:
FIGS. 7A-7G. […] FIG. 7A. The expression of activated SHH (SHH-N) in EAC cell lines and the cell culture medium. FIG. 7B. The mRNA levels of Gli1 target genes in EAC cell lines with or without SHH treatment (1 μg/mL). The mRNA levels of Gli1 target genes are normalized to ACTIN. Error bars represent SD (n=3). FIG. 7C. […] Error bars represent SD (n=4). FIG. 7D. […] Error bars represent SD (n=4). FIG. 7E. […] Error bars represent SD (n=4). FIG. 7F. […] Error bars represent SD (n=4). FIG. 7G. In vivo combination therapy for subcutaneously inoculated tumors from BE3 cells using GDC-0449 (50 mg/kg) or RAD001 (10 mg/kg). One million cells were subcutaneously injected into the right flank of nude mice and the tumor cells were allowed to grow for 10 days (the arrow) before initiation of drug treatment. The vehicle, GDC-0449, RAD001, or combination of GDC-0449 and RAD001 were orally administrated, qd. The tumor volume measured and calculated using the formula: l×w^2, where l is the longest diameter and w is the shortest diameter. Error bars represent SD (n=5).
The concentrations required to inhibit cell growth by 50% (IC50) were calculated from survival curves.

The test system of assay [2] is CF-Pac-1 and AsPC-1 stable clones. Kind of assay: MTT assay of PDAC Gli1 stable clones with GEM. It counts as cell-based. The text has this:
FIGS. 19A-C. Gli1 is negatively correlated with sensitivity of pancreatic cancer cells to GEM. Gli1 knock-down sensitized the response of PDAC cells to gemcitabine (GEM), but overexpression of Gli1 protected PDAC cells from GEM. FIG. 19A. Western blot of Gli1 in stable clones of AsPC-1 and CF-Pac-1 cells with Gli1 knocked down or ectopic expression. FIG. 19B. MTT assay of CF-Pac-1 stable clones with GEM. FIG. 19C. MTT assay of AsPC-1 stable clones with GEM.
Knock-down of Gli1 in PDAC cells sensitized the cells to gemcitabine (GEM), and overexpression of Gli1 protected PDAC cells from GEM. The inventor's performed a western blot for Gli1 in stable clones of AsPC-1 and CF-Pac-1 cells with Gli1 knocked down or ectopically expressed (FIG. 19A). MTT assays were performed on CF-Pac-1 stable clones (FIG. 19B) and AsPC-1 stable clones (FIG. 19C) with GEM. Gli1 expression correlated negatively with sensitivity of pancreatic cancer cells to GEM.
Background: Tetrazolium dyes change colour on reduction, which living cells bring about.

Assay [3] relates to Gli1. Kind of assay: Western blot of Gli1 in breast cancer cell lines. The format is cell-based. The note with it: for Gli1 protein levels: BT549 and Hs578t breast cancer cells. The method, then:
FIG. 21. […] Western blot showing the effect of PF-4708671 on S6 phosphorylation, S6K1 phosphorylation, and Gli1 expression in the BT549 cell line. Tubulin was detected as a loading control. Lane labels indicate the micromolar concentration of PF-4708671 used.
FIG. 22. […] DMSO was used as a negative control.
A western blot was performed to show the effect of PF-4708671 on S6 phosphorylation, S6K1 phosphorylation, and Gli1 expression in the BT549 cell line (FIG. 21).
(In general: Immunoblotting shows a protein as a band on a membrane.)

Assay [4] deals with subcutaneously inoculated tumors from BE3 cells. The experiment in a line: In vivo combination therapy of subcutaneous BE3 tumors. The arrangement: species or system nude mice. The text has this: FIG. 7A. […] FIG. 7B. […] Error bars represent SD (n=3). FIG. 7C. […] FIG. 7G.
The subject of assay [5] is Gli-dependent luciferase reporter. Kind of assay: Gli-dependent luciferase reporter assay in EAC cell lines. It counts as cell-based, human. The method, then:
Because Gli protein activity is a useful readout for the HH pathway (Jiang and Hui, 2008), the inventors employed a Gli-dependent luciferase reporter system (Sasaki et al., 1997) to evaluate the influence of TNFα on the HH pathway in three EAC cell lines, BE3, SKGT-4, and OE33 (Boonstra et al., 2010). […] Then, the inventors compared the activity of HH pathway in EAC cells stimulated by SHH or TNFα.
Cells were seeded in six-well plates and transfected with GliBS or mGliBS combined with CMV-Renilla vector as an internal standard. After overnight (12-16 hr) transfection, the cells were used for further experiments. After treatment, the cells were rinsed with PBS and subjected to luciferase assay using a dual-luciferase reporter assay system (Promega) based on the manufacturer's instruction.
(Reporter assays use an easily measured gene product as a stand-in for the process of interest.)

For assay [6], the system named is Gli1. Kind of assay: Gli1 nuclear accumulation (cell fractionation Western blot, immunofluorescence) in BE3 cells. It counts as cell-based, human. The note with it: TNFα 5 ng/mL alone. The method, then:
FIGS. 1A-1E. TNFα regulates Gli1 transcriptional activity. FIG. 1A. Luciferase assay for Gli transcriptional activity in esophageal adenocarcinoma (EAC) cell lines with or without TNFα (5 ng/mL) stimulation. The EAC cells were transfected using GliBS-Luciferase or mGliBS-Luciferase with CMV-Renilla at a 10:1 ratio, serum-starved overnight, and then treated with TNFα for 24 hr. GliBS is a Gli-responsive reporter, and mGliBS is a Gli-unresponsive reporter. Error bars represent SD (n=5). FIG. 1B. The mRNA levels of Gli1 target genes in the EAC cell lines with or without TNFα (5 ng/mL) stimulation were examined by real-time PCR and normalized to the mRNA level of ACTIN. Error bars represent SD (n=4). FIG. 1C. […] FIG. 1D. […] Then, the cells were lysed for cell fractionation followed by Western blotting. Lamin B and tubulin were used as markers for the nucleus and the cytoplasm, respectively. FIG. 1E. Immunofluorescent analysis of Gli1 in BE3 cells treated with TNFα (5 ng/mL) alone or co-treated with TNFα and rapamycin (50 nM) for the indicated time course. Scale bar=100 μm for original picture and 25 μm for inset. Dapi was used to stain nuclei.
Cellular fractionation was performed as described previously (Lin et al., 2001). Briefly, cells were lysed in the lysis buffer (20 mM HEPES, pH 7.0, 10 mM KCl, 2 mM MgCl2, 0.5% NP-40, 1 mM Na3VO4, 10 mM NaF, 1 mM PMSF, 2 μg/mL aprotinin). […]

On to `CC1=C2C[C@H]3[C@@H](CC=C4C[C@@H](O)CC[C@@]43C)[C@@H]2CC[C@]12O[C@@H]1C[C@H](C)CN[C@H]1[C@H]2C` [cyclopamine], for which, in assay [1], the “resistance of BE3/Gli1 under TNFα treatment” value is “increased the resistance” and the “efficacy in the EAC cell lines with rapamycin treatment” value is “enhanced the efficacy”.
With `Nc1ccn([C@@H]2O[C@H](CO)[C@@H](O)C2(F)F)c(=O)n1` [gemcitabine], in assay [2], the “response of PDAC cells with knock-down of Gli1” value is “sensitized” and the “response of PDAC cells with overexpression of Gli1” value is “protected”.
Take `CO[C@H]1C[C@@H]2CC[C@@H](C)[C@@](O)(O2)C(=O)C(=O)N2CCCC[C@H]2C(=O)O[C@H]([C@H](C)C[C@@H]2CC[C@@H](OCCO)[C@H](OC)C2)CC(=O)[C@H](C)/C=C(\C)[C@@H](O)[C@@H](OC)C(=O)[C@H](C)C[C@H](C)/C=C/C=C/C=C/1C` [RAD001, everolimus]: the Gli1 protein levels entry in the assay with Gli1 [3] is recorded as “decreased Gli1 protein levels”. The “tumor-inhibitory effect of GDC-0449 when combined with RAD001” value in assay [4] (GDC-0449 50 mg/kg and RAD001 10 mg/kg qd oral) is on record as “enhanced the tumor-inhibitory effect”. Also, in assay [4] (RAD001 10 mg/kg qd oral, alone, low dose), the tumor growth entry is recorded as “did not inhibit tumor growth”.
For `NC1(c2ccc(-c3nc4ccn5c(=O)[nH]nc5c4cc3-c3ccccc3)cc2)CCC1` [MK], the Gli1 protein levels result in the assay with Gli1 [3] is “decreased Gli1 protein levels”.
As to `CS(=O)(=O)c1ccc(C(=O)Nc2ccc(Cl)c(-c3ccccn3)c2)c(Cl)c1` [GDC-0449], the EAC tumor size entry in assay [4] (GDC-0449 50 mg/kg qd oral, alone) is on record as “decreased the EAC tumor size”. Moreover, the “IC50 value in BE3/S84E compared with BE3/EV, BE3/Gli1 and BE3/S84A” value in assay [1] (48 hr, Gli1 stable clones) is recorded as “much higher”. In addition, in assay [1], the “resistance of BE3/Gli1 under TNFα treatment” value is “increased the resistance” and the “efficacy in the EAC cell lines with rapamycin treatment” value was “enhanced the efficacy”. Besides, in assay [5] (Gli reporter, EAC cell lines, FIG. 9A), the “constitutive activation of HH pathway in EAC cell lines” value is on record as “can be inhibited”. Moreover, the “mTOR/S6K1-mediated Gli1 activation” value in assay [5] (SMO inhibitors) was “had little effects”.
Turning to `CCc1cncnc1N1CCN(Cc2nc3ccc(C(F)(F)F)cc3[nH]2)CC1` [PF-4708671], the Gli1 expression entry in the assay on Gli1 [3] (BT549 cell line) is recorded as “decreased”.
TNFα: the Gli1 nuclear accumulation entry in the assay with Gli1 [6] is given as “rapidly induced Gli1 nuclear accumulation”. The “activity of HH pathway in EAC cells” value in assay [5] (Gli reporter, stimulation by SHH or TNFα, FIG. 9A) is given as “increased the activity of HH pathway”.
